Columns and labels:
hESC-CMs = assay: Mitochondrial membrane potential (TMRE); format: cell-based, human
Procedure: Mitochondrial membrane potential (MMP) as a measure of mitochondrial function and viability was assessed using tetramethylrhodamine ethyl ester (TMRE) (Thermo Fisher Scientific, USA), a cell-permeant cationic fluorescent dye that is readily taken up by viable mitochondria. hESC-CMs seeded at 15,000 cells per well on a 96-well flat-bottom microtiter plate were cultured at 37° C. in a humidified 5% CO2 atmosphere for at least 3 days before MMP measurement. TMRE dye was applied at 50 nM for 20 minutes in B27+/RPMI−1640 media, followed by fluorescence reading at excitation and emission wavelengths of 485 nm and 528 nm, respectively, using the Synergy HTX Multi-Mode microplate reader.

C57BL/6J male mice [1] = assay: TUNEL staining of mouse myocardium (cardiomyocyte apoptosis); format: in vivo; details: pretreatment before doxorubicin
Procedure: (§1) Recombinant human GDF15/MIC-1 protein (CHO-derived) was purchased from PeproTech Inc. (Cranbury, USA) and described in Example 1. […] For in vitro studies, solid lyophilized powder of these two drugs were solubilized at the recommended concentrations in sterile water, and separate aliquots were made and frozen until thawing prior to addition to cell cultures. For in vivo studies, all agents were dissolved in […] normal saline according to the required concentrations (doxorubicin, 5 mg/kg; GDF15, 0.5 mg/kg; dexrazoxane, […]), and the final volume of each intraperitoneal injection was 100 μl. The recommended dose ratio of dexrazoxane to doxorubicin was 10 to 1. In the following examples, 5 mg/kg of doxorubicin was used which correspond to 50 mg/kg of dexrazoxane. The FDA recommends that dexrazoxane be injected within 0.5 hour prior to doxorubicin infusion in individuals. This was followed in the same manner when applying to the test animals.
To induce cardiotoxicity in the mouse, four weekly intraperitoneal injections of doxorubicin at 5 mg/kg were administered. After one dose of doxorubicin at 5-6 mg/kg in a mouse, the level of exposure has been estimated to be similar to that of a human individual being given a standard dose of doxorubicin at approximately 60 mg/m^2. […]

C57BL/6J male mice [2] = details: mouse, in vivo
Procedure: as §1
The body weight of each mouse was recorded weekly, before each doxorubicin injection and before sacrifice. At the end of experiment, all mice were euthanized with sodium pentobarbital 100 mg/kg administered intraperitoneally, and the hearts were excised immediately. The tibia of the mice were carefully dissected and its length was measured. […]

Compound	mitochondrial membrane potential and function (TMRE) (hESC-CMs; 300 ng/ml GDF15 pretreatment, hESC-CMs exposed to doxorubicin)	mitochondrial membrane potential compared with dexrazoxane (hESC-CMs; hESC-CMs, pretreatment in the presence of Dox)	cardiomyocyte death by apoptosis (TUNEL staining) (C57BL/6J male mice [1])	heart weight-to-tibia length ratio (C57BL/6J male mice [2])
GDF15: commercially available recombinant human GDF-15 protein (PeproTech 120-28C), CHO cell-derived, SEQ ID NO: 1	better preserved than at other concentrations	performed similarly to dexrazoxane	reduced extent of cardiomyocyte death by apoptosis	
COc1cccc2c1C(=O)c1c(O)c3c(c(O)c1C2=O)C[C@@](O)(C(=O)CO)C[C@@H]3OC1C[C@H](N)[C@H](O)[C@H](C)O1.Cl (stereo partly drawn) [Dox, (8S,10S)-10-[(3-Amino-2,3,6-trideoxy-L-lyxohexopyranosyl)oxy]-7,8,9,10-tetrahydro-6,8,11-trihydroxy-8-(hydroxyacetyl)-1-methoxynaphthacene-5,12-dione hydrochloride, reference compound]				decrease
